From patent publication US11986475B1, “Compositions and methods for treating cancer” (A2A Pharmaceuticals, Inc., priority 2022, dated 2024)

Experiments:
MDA-MB-231 = assay: Cell viability assay (SRB or CTG) in MDA-MB-231; assay type: cell-based; details: Homo sapiens, MDA-MB-231, 72 h, 3 days after drug treatment
Protocol: (§1) Human breast carcinoma cell line, MDA-MB-231 and human endometrial cancer cell line, HEC-59 were purchased from ATCC (American Type Culture Collection; USA). MDA-MB-231 cells were cultured in Dulbecco's modified Eagle's medium (Lonza, NJ, USA), and HEC-59 were grown in Iscove's Modified Dulbecco's Medium (Lonza, NJ, USA), supplemented with 10% fetal bovine serum (FBS, Lonza), 1% non-essential amino acid (NEAA), 2 mM L-glutamine (Sigma Aldrich, MO, USA) and 50 U/ml penicillin/streptomycin (P/S). All cell lines were tested regularly using MycoAlert Mycoplasma Detection Kit (Lonza). The cumulative length of the cells between thawing and use in the experiments was less than 20 passages.
(§2) 4000 cells/well of MDA-MB-231 and HEC-59 cells were seeded in a 96 well plate in 80 μL media/well. Approximately 18 hours later, 3× drug solutions were prepared by serial dilution (100, 10, 5, 1, 0.5, 0.3, 0.1, 0.05, 0.01 μM), and the drug containing media was added to each well with a volume of 40 μL. For MDA-MB-231, 3 days after drug treatment, the SRB or CTG assay was performed. HEC59, the drug containing media was renewed at day 4. After 7 days total, the SRB or CTG assay was performed.

HEC-59 = assay: Cell viability assay (SRB or CTG) in HEC-59; assay type: cell-based; details: Homo sapiens, 7 days total, media renewed at day 4, SRB or CTG
Protocol: as §1, §2

RKO xenograft = assay: RKO colon cancer xenograft tumor growth; assay type: in vivo, female athymic Balb/c nude mice
Protocol: Six-to-eight-week-old female athymic Balb/c nude mice were housed with a temperature-controlled and 12-hour light/12-hour dark cycle environment. For in vivo colon cancer tumor growth, 5×10^6 RKO cells were prepared in 100 μl of DMEM and injected into right flank of female nude mice. Mouse weight and tumor volume were measured twice a week. Tumor volumes were calculated as length×width^2×0.5. Once the tumor volume had reached about 150-175 mm^3, xenografts were randomized into groups (8 mice per group). Animals were treated with vehicle, Compound 80 or oxaliplatin as mentioned in the table. The formulation for vehicle and Compound 80 was 50% PEG400 and 20% Cremophor RH40 final (50% of 40% Cremophor) in Acetate buffer, PH=4. Oxaliplatin was prepared in glucose solution. The mice were sacrificed after around 3 weeks or if the tumors reached a predefined tumor volume cut-off of 2500 mm^3.

MDA-MB-231 xenograft = MDA-MB-231 xenograft tumor growth; assay type: in vivo, female athymic Balb/c nude mice; details: MDA-MB-231 xenograft, 20, 25 and 30 mpk BID
Protocol: (§3) Compound 80 was tested in other xenograft models using the following cell lines: triple negative breast cancer cell line, MDA-MB-231, ovarian cancer cell line, SKOV-3 and endometrium cell line, HEC-59. For the SKOV-3 xenograft, 1.5×10^7 SKOV-3 cells in 200 μl of 1:1 DMEM: Matrigel (Thermo Fisher, NJ, USA) and for the MDA-MB-231 xenograft, 1.5×10^7 MDA-MB-231 cells in 100 μl of 1:1 DMEM: Matrigel (Thermo Fisher, NJ, USA) for was injected in the right flank of six-to-eight-week-old female athymic Balb/c nude mice. When the tumor volume reached mean of ˜200 mm^3 mice for SKOV-3 xenografts and between 150-175 mm^3 for MDA-MB-231 xenografts, mice were randomized in a group of 8, and treatment was initiated vehicle, 20 mpk BID, 25 mpk BID and 30 mpk BID of Compound 80. For the HEC-59 xenografts, 1.×10^7 HEC-59 cells in 100 μl of DMEM (Lonza, NJ, USA) was injected in the right flank of six-to-eight-week-old female athymic Balb/c nude mice. When the tumor volume reached mean of ˜150 mm^3 mice were randomized in a group of 8 mice, and treatment was initiated vehicle, 20 mpk BID, 40 mpk QD and 30/40 mpk BID of Compound 80.

SKOV-3 xenograft = SKOV-3 xenograft tumor growth; assay type: in vivo, female athymic Balb/c nude mice; details: SKOV-3 xenograft, 20, 25 and 30 mpk BID
Protocol: as §3

HEC-59 xenograft = HEC-59 xenograft tumor growth; assay type: in vivo, female athymic Balb/c nude mice; details: 20 mpk BID, 40 mpk QD and 30/40 mpk BID
Protocol: as §3

IC50 (MDA-MB-231): 398 nM
SMILES: C[C@@H]1CN(c2ncc(F)c(Nc3cc(-c4ccc(OC(F)F)cc4)cnn3)n2)C[C@H](C)O1 [Compound 80, 5-(4-(difluoromethoxy)phenyl)-N-(2-((2R,6S)-2,6-dimethylmorpholino)-5-fluoropyrimidin-4-yl)pyridazin-3-amine]
IC50 (HEC-59): 236 nM
tumor growth inhibition (in words) (RKO xenograft; RKO xenograft, 20 and 30 mg/kg BID, 50 mg/kg QD PO): strong tumor growth inhibition in a dose-dependent manner
TGI (RKO xenograft; RKO xenograft, at the highest dose, PO, 20 days): 85%
tumor growth inhibition compared to the standard of care (FIG. 1) (RKO xenograft; xenograft model, versus standard of care (oxaliplatin)): superior tumor growth inhibition
tumor growth inhibition or regression (MDA-MB-231 xenograft): Statistically significant tumor growth inhibition or regression was observed
tumor growth inhibition or regression (SKOV-3 xenograft): Statistically significant tumor growth inhibition or regression was observed
tumor growth inhibition or regression (HEC-59 xenograft): Statistically significant tumor growth inhibition or regression was observed
